From patent US20240327412A1, “FACTOR XIIA INHIBITORS” (KALVISTA PHARMACEUTICALS LIMITED, priority 2021, published 2024) come the findings set out here.

The structures appear in SMILES notation. pIC50: −log10 of the molar value. Some results are limits rather than exact numbers.

One assay deals with T1, Human Factor XIIa (Homo sapiens, UniProt P00748).
T1 construct: Proteolytic cleavage of FXII to heavy and light chains of FXIIa dramatically increases catalytic activity; purchased Enzyme Research Laboratories
T1 sequence (P00748 373-615 limits assumed): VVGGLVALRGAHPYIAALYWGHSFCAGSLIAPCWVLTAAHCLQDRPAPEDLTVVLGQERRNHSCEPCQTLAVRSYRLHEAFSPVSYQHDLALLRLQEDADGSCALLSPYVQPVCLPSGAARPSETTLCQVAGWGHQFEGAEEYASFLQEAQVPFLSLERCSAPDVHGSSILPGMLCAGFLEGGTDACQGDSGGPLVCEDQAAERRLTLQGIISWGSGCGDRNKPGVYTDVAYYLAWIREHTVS
T1 sequence (P00748 20-372 partner limits assumed): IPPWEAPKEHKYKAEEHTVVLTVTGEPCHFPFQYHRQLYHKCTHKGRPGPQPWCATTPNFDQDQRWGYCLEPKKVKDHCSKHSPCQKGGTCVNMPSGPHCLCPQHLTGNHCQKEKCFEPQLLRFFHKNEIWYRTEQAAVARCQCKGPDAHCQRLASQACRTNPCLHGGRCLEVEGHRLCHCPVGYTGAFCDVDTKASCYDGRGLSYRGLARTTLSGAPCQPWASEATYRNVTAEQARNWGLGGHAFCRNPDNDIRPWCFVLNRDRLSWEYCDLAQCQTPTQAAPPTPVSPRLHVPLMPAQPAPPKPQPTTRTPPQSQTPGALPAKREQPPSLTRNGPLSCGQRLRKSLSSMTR
Nature of the assay: Determination of FXIIa inhibition (fluorogenic substrate H-DPro-Phe-Arg-AFC, IC50 assay). In kind it is biochemical. The conditions noted are these: substrate at Km concentration, 25° C.; category scale; read-out: Human FXII IC50 (nm). The essentials: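 At substrate Km and 25° C., the rate of AFC release from H-DPro-Phe-Arg-AFC by human Factor XIIa was followed for 5 min across compound concentrations. Inhibition was derived as percent of uninhibited rate, giving IC50.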

For another assay, the target named is T2, Plasma Kallikrein (Homo sapiens, UniProt P03952).
T2 construct: FXIIa converts plasma prekallikrein (PK) to plasma kallikrein (PKa)
T2 sequence (P03952 391-638 limits assumed): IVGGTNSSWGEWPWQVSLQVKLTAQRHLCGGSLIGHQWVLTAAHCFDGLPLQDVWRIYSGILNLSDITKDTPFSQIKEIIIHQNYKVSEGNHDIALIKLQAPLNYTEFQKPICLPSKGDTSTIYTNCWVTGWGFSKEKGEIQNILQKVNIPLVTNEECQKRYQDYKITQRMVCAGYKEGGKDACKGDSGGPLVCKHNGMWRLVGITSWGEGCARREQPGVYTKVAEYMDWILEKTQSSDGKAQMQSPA
T2 sequence (P03952 20-390 partner limits assumed): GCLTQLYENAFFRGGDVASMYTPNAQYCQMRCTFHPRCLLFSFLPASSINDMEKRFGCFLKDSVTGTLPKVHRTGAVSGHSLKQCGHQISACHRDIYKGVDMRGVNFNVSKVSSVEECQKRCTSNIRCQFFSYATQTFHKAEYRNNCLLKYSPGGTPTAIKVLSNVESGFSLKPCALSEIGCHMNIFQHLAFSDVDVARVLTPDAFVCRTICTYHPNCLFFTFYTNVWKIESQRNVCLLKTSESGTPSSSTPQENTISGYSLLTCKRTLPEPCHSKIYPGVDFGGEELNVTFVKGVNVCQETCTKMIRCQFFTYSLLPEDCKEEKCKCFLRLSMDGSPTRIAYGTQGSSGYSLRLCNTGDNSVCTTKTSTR
Nature of the assay: Related protease inhibition: Plasma Kallikrein (fluorogenic substrate at Km). The assay is classed as biochemical. The conditions noted are these: class symbols per Table 18, read-out: IC50 (human PKal). How it is done:
In vitro inhibition of related proteases was determined using an IC50 assay based on standard literature methods (see e.g. Shori et al., Biochem. Pharmacol., 1992, 43, 1209; Bouckaert et al., European Journal of Medicinal Chemistry 110 (2016) 181). Human serine protease enzyme Plasma Kallikrein, KLK1, FXa, Plasmin, Thrombin and Trypsin were assayed for enzymatic activity using an appropriate fluorogenic substrate at Km concentration, FXIa at fixed substrate concentration of 100 μM and various concentrations of the test compound. Protease activity was measured by monitoring the accumulation of liberated fluorescence from the substrate over 5 min at 25° C. The linear rate of fluorescence increase per minute was expressed as percentage (%) activity. IC50 values were calculated as the concentration of inhibitor giving 50% inhibition of the uninhibited enzyme activity (100%).

Broadly, the pIC50 is the negative decadic logarithm of the IC50, by convention in mol/L. Take `Nc1nccc2c(NCC34CC(COC5CCn6ccnc6C5)(C3)C4)cccc12` (single isomer, unassigned) [Example 1002.2, (R*)-N5-((3-(((5,6,7,8-tetrahydroimidazo[1,2-a]pyridin-7-yl)oxy)methyl)bicyclo[1.1.1]pentan-1-yl)methyl)isoquinoline-1,5-diamine]: the pIC50 was 6.00 to 6.52 at Human Factor XIIa and less than 4.40 on Plasma Kallikrein.
For `Nc1nccc2c(N3CC4(CCC4OCc4ccn5ccnc5c4)C3)cccc12` (single isomer, unassigned) [Example 9002, (R*)-5-(5-(imidazo[1,2-a]pyridin-7-ylmethoxy)-2-azaspiro[3.3]heptan-2-yl)isoquinolin-1-amine] the same measures were 4.40 to 5.00 and less than 4.40.
For `Nc1nccc2c(N3CC4(CCC4OCc4ccn5ccnc5c4)C3)cccc12` (single isomer, unassigned) [Example 9003, (S*)-5-(5-(imidazo[1,2-a]pyridin-7-ylmethoxy)-2-azaspiro[3.3]heptan-2-yl)isoquinolin-1-amine] the same measures were 4.40 to 5.00 and less than 4.40.
The corresponding values for `CC(C)N1C[C@@H]2C[C@H]1CN2CC12CC(CNc3cccc4c(N)nccc34)(C1)C2` [Example 1005.1, N5-((3-(((1S,4S)-5-Isopropyl-2,5-diazabicyclo[2.2.1]heptan-2-yl)methyl)bicyclo[1.1.1]pentan-1-yl)methyl)isoquinoline-1,5-diamine] are 6.00 to 6.52 and less than 4.40.
Turning to `Nc1nccc2c(OCC34CC(COc5ccn6ccnc6c5)(C3)C4)cccc12` [Example 1013, 5-[[3-(Imidazo[1,2-a]pyridin-7-yloxymethyl)-1-bicyclo[1.1.1]pentanyl]methoxy]isoquinolin-1-amine], the pIC50 on Human Factor XIIa is 6.00 to 6.52; at Plasma Kallikrein, less than 4.40.
For `Clc1c[nH]c2ncc(NCC34CC(COc5ccn6ccnc6c5)(C3)C4)cc12` [Example 1129, 3-chloro-N-((3-((imidazo[1,2-a]pyridin-7-yloxy)methyl)bicyclo[1.1.1]pentan-1-yl)methyl)-1H-pyrrolo[2,3-b]pyridin-5-amine], the pIC50 at Plasma Kallikrein was less than 4.00.
For the molecule `Cn1ccc(OCC23CC(CNc4cccc5c(N)nccc45)(CN2)C3)cc1=O` [Example 13007, 4-((4-(((1-aminoisoquinolin-5-yl)amino)methyl)-2-azabicyclo[2.1.1]hexan-1-yl)methoxy)-1-methylpyridin-2(1H)-one], the pIC50 on Human Factor XIIa was 6.52 to 7.00.
Still for that read-out and setting: with `Cn1ccc(OCC23CC(CNc4cccc5c(N)nccc45)(CN2C(=O)CCc2ccccc2)C3)cc1=O` [Example 13008, 4-((4-(((1-aminoisoquinolin-5-yl)amino)methyl)-2-(3-phenylpropanoyl)-2-azabicyclo[2.1.1]hexan-1-yl)methoxy)-1-methylpyridin-2(1H)-one] the figure was 6.00 to 6.52; with `Cn1ccc(OCC23CC(CNc4cccc5c(N)nccc45)(CN2C(=O)OCc2cccnc2)C3)cc1=O` [Example 13009, Pyridin-3-ylmethyl4-(((1-aminoisoquinolin-5-yl)amino)methyl)-1-(((1-methyl-2-oxo-1,2-dihydropyridin-4-yl)oxy)methyl)-2-azabicyclo[2.1.1]hexane-2-carboxylate], 7.00 to 8.00; with `Cn1ccc(OCC23CC(CNc4cccc5c(N)nccc45)(CN2C(=O)CCc2cccnc2)C3)cc1=O` [Example 13010, 4-((4-(((1-aminoisoquinolin-5-yl)amino)methyl)-2-(3-(pyridin-3-yl)propanoyl)-2-azabicyclo[2.1.1]hexan-1-yl)methoxy)-1-methylpyridin-2(1H)-one], 6.52 to 7.00.
Still for that read-out and setting: with `CN(Cc1ccccc1)C(=O)N1CC2(CNc3cccc4c(N)nccc34)CC1(COc1ccn(C)c(=O)c1)C2` [Example 13011, 4-(((1-aminoisoquinolin-5-yl)amino)methyl)-N-benzyl-N-methyl-1-(((1-methyl-2-oxo-1,2-dihydropyridin-4-yl)oxy)methyl)-2-azabicyclo[2.1.1]hexane-2-carboxamide] the figure was 6.00 to 6.52; with `Cn1ccc(OCC23CC(CNc4cccc5c(N)nccc45)(CN2C(=O)NCc2ccccc2)C3)cc1=O` [Example 13012, 4-(((1-aminoisoquinolin-5-yl)amino)methyl)-N-benzyl-1-(((1-methyl-2-oxo-1,2-dihydropyridin-4-yl)oxy)methyl)-2-azabicyclo[2.1.1]hexane-2-carboxamide], 7.00 to 8.00; with `Cn1ccc(OCC23CC(CNc4cccc5c(N)nccc45)(CN2C(=O)OCc2ccccn2)C3)cc1=O` [Example 13013, pyridin-2-ylmethyl 4-(((1-aminoisoquinolin-5-yl)amino)methyl)-1-(((1-methyl-2-oxo-1,2-dihydropyridin-4-yl)oxy)methyl)-2-azabicyclo[2.1.1]hexane-2-carboxylate], 6.52 to 7.00.
Still for that read-out and setting: with `Cn1ccc(OCC23CC(CNc4cccc5c(N)nccc45)(CN2S(=O)(=O)CCc2ccccc2)C3)cc1=O` [Example 13014, 4-((4-(((1-aminoisoquinolin-5-yl)amino)methyl)-2-(phenethylsulfonyl)-2-azabicyclo[2.1.1]hexan-1-yl)methoxy)-1-methylpyridin-2(1H)-one] the figure was 6.52 to 7.00; with `Cn1ccc(OCC23CC(CNc4cccc5c(N)nccc45)(CN2CCCc2ccccc2)C3)cc1=O` [Example 13015, 4-((4-(((1-aminoisoquinolin-5-yl)amino)methyl)-2-(3-phenylpropyl)-2-azabicyclo[2.1.1]hexan-1-yl)methoxy)-1-methylpyridin-2(1H)-one], 6.52 to 7.00; with `Cn1ccc(OCC23CC(CNc4cccc5c(N)nccc45)(CN2C(=O)CCc2ccccn2)C3)cc1=O` [Example 13016, 4-((4-(((1-aminoisoquinolin-5-yl)amino)methyl)-2-(3-(pyridin-2-yl)propanoyl)-2-azabicyclo[2.1.1]hexan-1-yl)methoxy)-1-methylpyridin-2(1H)-one], 6.00 to 6.52.
Turning to `Cn1ccc(OCC23CC(CNc4cccc5c(N)nccc45)(CN2C(=O)CCc2ccccc2Cl)C3)cc1=O` [Example 13017, 4-((4-(((1-aminoisoquinolin-5-yl)amino)methyl)-2-(3-(2-chlorophenyl)propanoyl)-2-azabicyclo[2.1.1]hexan-1-yl)methoxy)-1-methylpyridin-2(1H)-one], the pIC50 at Human Factor XIIa is 6.00 to 6.52.
On the same count and under the same terms, with `Cn1ccc(OCC23CC(CNc4cccc5c(N)nccc45)(CN2c2nc4ccccc4o2)C3)cc1=O` [Example 13018, 4-[[4-[[(1-aminoisoquinolin-5-yl)amino]methyl]-2-(1,3-benzoxazol-2-yl)-2-azabicyclo[2.1.1]hexan-1-yl]methoxy]-1-methylpyridin-2-one] the figure was 6.00 to 6.52; with `Cn1ccc(OCC23CC(CNc4cccc5c(N)nccc45)(CN2C(=O)Nc2ccccc2)C3)cc1=O` [Example 13019, 4-(((1-aminoisoquinolin-5-yl)amino)methyl)-1-(((1-methyl-2-oxo-1,2-dihydropyridin-4-yl)oxy)methyl)-N-phenyl-2-azabicyclo[2.1.1]hexane-2-carboxamide], 6.00 to 6.52; with `Cn1ccc(OCC23CC(CNc4cccc5c(N)nccc45)(CN2C(=O)OCc2ccccc2Cl)C3)cc1=O` [Example 13020, 2-chlorobenzyl 4-(((1-aminoisoquinolin-5-yl)amino)methyl)-1-(((1-methyl-2-oxo-1,2-dihydropyridin-4-yl)oxy)methyl)-2-azabicyclo[2.1.1]hexane-2-carboxylate], 7.00 to 8.00.
The same measure, in the same setting: with `Cn1ccc(OCC23CC(CNc4cccc5c(N)nccc45)(CN2C(=O)Cc2ccccc2)C3)cc1=O` [Example 13021, 4-((4-(((1-aminoisoquinolin-5-yl)amino)methyl)-2-(2-phenylacetyl)-2-azabicyclo[2.1.1]hexan-1-yl)methoxy)-1-methylpyridin-2(1H)-one] the figure was 6.00 to 6.52; with `Cn1cc(COC(=O)N2CC3(CNc4cccc5c(N)nccc45)CC2(COc2ccn(C)c(=O)c2)C3)cn1` [Example 13022, (1-methyl-1H-pyrazol-4-yl)methyl 4-(((1-aminoisoquinolin-5-yl)amino)methyl)-1-(((1-methyl-2-oxo-1,2-dihydropyridin-4-yl)oxy)methyl)-2-azabicyclo[2.1.1]hexane-2-carboxylate], 7.00 to 8.00.
